Data reported in PubChem BioAssay (NCI).
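Cultured in 96-well plates, cells were exposed to test compound for 48 hours across five concentrations. Definition used: TGI = concentration required for complete inhibition of growth.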

Tests used:
Test in all cases: NCI tumour cell line growth inhibition, 48 h
ACHN renal = system: ACHN renal
CCRF-CEM leukemia = system: CCRF-CEM leukemia
COLO 205 colon = system: COLO 205 colon
HCT-116 colon = system: HCT-116 colon
HT29 colon = system: HT29 colon
IGROV1 ovarian = system: IGROV1 ovarian
NCI-H23 lung = system: NCI-H23 lung
RPMI-8226 leukemia = system: RPMI-8226 leukemia
SK-MEL-28 melanoma = system: SK-MEL-28 melanoma
SW-620 colon = system: SW-620 colon
UACC-257 melanoma = system: UACC-257 melanoma

SMILES: COC1/C=C/C(C)C(C(C)C(OC)C(C)CCC(=O)C(C)C(CC(=O)O)OC)OC(=O)/C=C/C=C(\C)CC(OC)C(OC)C2=CC(=O)O[C@@H](C(C)C(OC)CC(OC)/C=C/C(C)C(O)C1)[C@H]2O (stereo not given in full)
- TGI (ACHN renal): > 1.07 µM
- TGI (CCRF-CEM leukemia): > 1.07 µM
- TGI (COLO 205 colon): > 1.07 µM
- TGI (HCT-116 colon): 0.227 µM
- TGI (HT29 colon): 0.0701 µM
- TGI (IGROV1 ovarian): 0.0297 µM
- TGI (NCI-H23 lung): 0.722 µM
- TGI (RPMI-8226 leukemia): > 1.07 µM
- TGI (SK-MEL-28 melanoma): 0.267 µM
- TGI (SW-620 colon): > 1.07 µM
- TGI (UACC-257 melanoma): > 1.07 µM

SMILES: CN(C)Cc1cc(N=Nc2c(Cl)cccc2Cl)ccc1O
- TGI (ACHN renal): > 100 µM
- TGI (CCRF-CEM leukemia): > 100 µM
- TGI (COLO 205 colon): > 100 µM
- TGI (HCT-116 colon): > 100 µM
- TGI (HT29 colon): > 100 µM
- TGI (IGROV1 ovarian): > 100 µM
- TGI (NCI-H23 lung): > 100 µM
- TGI (RPMI-8226 leukemia): > 100 µM
- TGI (SK-MEL-28 melanoma): > 100 µM
- TGI (SW-620 colon): > 100 µM
- TGI (UACC-257 melanoma): > 100 µM

SMILES: O=c1ccc(-c2ccc(-n3ccnc3)cc2)nn1CCO
- TGI (ACHN renal): > 100 µM
- TGI (CCRF-CEM leukemia): > 100 µM
- TGI (COLO 205 colon): > 100 µM
- TGI (HCT-116 colon): > 100 µM
- TGI (HT29 colon): > 100 µM
- TGI (IGROV1 ovarian): > 100 µM
- TGI (NCI-H23 lung): > 100 µM
- TGI (RPMI-8226 leukemia): > 100 µM
- TGI (SK-MEL-28 melanoma): > 100 µM
- TGI (SW-620 colon): > 100 µM
- TGI (UACC-257 melanoma): > 100 µM

SMILES: O=c1[nH]nc(Cc2ccccc2)n1N=C1CCCCC1
- TGI (ACHN renal): > 100 µM
- TGI (CCRF-CEM leukemia): > 100 µM
- TGI (COLO 205 colon): > 100 µM
- TGI (HCT-116 colon): > 100 µM
- TGI (HT29 colon): > 100 µM
- TGI (IGROV1 ovarian): > 100 µM
- TGI (NCI-H23 lung): > 100 µM
- TGI (RPMI-8226 leukemia): > 100 µM
- TGI (SK-MEL-28 melanoma): > 100 µM
- TGI (SW-620 colon): > 100 µM
- TGI (UACC-257 melanoma): > 100 µM

SMILES: Cc1nc(C)c(N2CCN(C(=O)NC(CCC(=O)O)C(=O)O)CC2)c(=O)[nH]1 (stereo not given)
- TGI (ACHN renal): > 100 µM
- TGI (CCRF-CEM leukemia): > 100 µM
- TGI (COLO 205 colon): > 100 µM
- TGI (HCT-116 colon): > 100 µM
- TGI (HT29 colon): > 100 µM
- TGI (IGROV1 ovarian): > 100 µM
- TGI (NCI-H23 lung): > 100 µM
- TGI (RPMI-8226 leukemia): > 100 µM
- TGI (SK-MEL-28 melanoma): > 100 µM
- TGI (SW-620 colon): > 100 µM
- TGI (UACC-257 melanoma): > 100 µM

SMILES: O=S(=O)(O)c1ccc(N=Nc2c(O)ccc3ccccc23)cc1
- TGI (ACHN renal): > 100 µM
- TGI (CCRF-CEM leukemia): > 100 µM
- TGI (COLO 205 colon): > 100 µM
- TGI (HCT-116 colon): > 100 µM
- TGI (HT29 colon): > 100 µM
- TGI (IGROV1 ovarian): > 100 µM
- TGI (NCI-H23 lung): > 100 µM
- TGI (RPMI-8226 leukemia): > 100 µM
- TGI (SK-MEL-28 melanoma): > 100 µM
- TGI (SW-620 colon): > 100 µM
- TGI (UACC-257 melanoma): > 100 µM

SMILES: O=C1CSC2(CC(/C=C/c3cccc(Br)c3)=NN2c2cccc(S(=O)(=O)O)c2)N1c1nc2ccccc2s1 (stereo not given)
- TGI (ACHN renal): > 100 µM
- TGI (CCRF-CEM leukemia): > 100 µM
- TGI (COLO 205 colon): > 100 µM
- TGI (HCT-116 colon): > 100 µM
- TGI (HT29 colon): > 100 µM
- TGI (IGROV1 ovarian): > 100 µM
- TGI (NCI-H23 lung): > 100 µM
- TGI (RPMI-8226 leukemia): > 100 µM
- TGI (SK-MEL-28 melanoma): > 100 µM
- TGI (SW-620 colon): > 100 µM
- TGI (UACC-257 melanoma): > 100 µM

SMILES: N/C(=N\Nc1cccc(Cl)c1)c1cccnc1
- TGI (ACHN renal): > 100 µM
- TGI (CCRF-CEM leukemia): > 100 µM
- TGI (COLO 205 colon): > 72.1 µM
- TGI (HCT-116 colon): > 100 µM
- TGI (HT29 colon): > 83.9 µM
- TGI (IGROV1 ovarian): > 100 µM
- TGI (NCI-H23 lung): > 100 µM
- TGI (RPMI-8226 leukemia): > 89.9 µM
- TGI (SK-MEL-28 melanoma): > 100 µM
- TGI (SW-620 colon): > 100 µM
- TGI (UACC-257 melanoma): > 81.5 µM

SMILES: CC(C)C(=O)CC(Sc1ccc(N)cc1)c1ccccc1 (stereo not given)
- TGI (ACHN renal): 58.3 µM
- TGI (CCRF-CEM leukemia): 70.7 µM
- TGI (COLO 205 colon): > 100 µM
- TGI (HCT-116 colon): 28.7 µM
- TGI (HT29 colon): > 100 µM
- TGI (IGROV1 ovarian): > 100 µM
- TGI (NCI-H23 lung): 58.2 µM
- TGI (RPMI-8226 leukemia): 63.1 µM
- TGI (SK-MEL-28 melanoma): > 100 µM
- TGI (SW-620 colon): 34.8 µM
- TGI (UACC-257 melanoma): > 100 µM

SMILES: COc1ccc2c(c1)nc1n2C(c2c(F)cccc2F)SC1 (stereo not given)
- TGI (ACHN renal): > 100 µM
- TGI (CCRF-CEM leukemia): > 100 µM
- TGI (COLO 205 colon): > 100 µM
- TGI (HCT-116 colon): > 100 µM
- TGI (HT29 colon): > 100 µM
- TGI (IGROV1 ovarian): > 100 µM
- TGI (NCI-H23 lung): > 100 µM
- TGI (RPMI-8226 leukemia): > 100 µM
- TGI (SK-MEL-28 melanoma): > 100 µM
- TGI (SW-620 colon): > 100 µM
- TGI (UACC-257 melanoma): > 100 µM
